Experimental data from PubChem BioAssay (NCI).
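Values below derive from 48-hour exposures of cells grown in 96-well plates, with endpoints linearly interpolated between the two concentrations bracketing the appropriate inhibition level. At the GI50, growth is halved. TGI: concentration producing complete growth inhibition.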

Assays:
Assay in all cases: inhibition of tumour cell growth, NCI panel, 48 h
OVCAR-5 ovarian = system: OVCAR-5 ovarian
DU-145 prostate = system: DU-145 prostate
TK-10 renal = system: TK-10 renal
SNB-75 CNS = system: SNB-75 CNS
SNB-19 CNS = system: SNB-19 CNS
HOP-62 NSCLC = system: HOP-62 NSCLC
COLO 205 colon = system: COLO 205 colon
UACC-257 melanoma = system: UACC-257 melanoma
BT-549 breast = system: BT-549 breast
HCT-116 colon = system: HCT-116 colon
MDA-MB-231 breast = system: MDA-MB-231 breast
A549 NSCLC = system: A549 NSCLC
EKVX NSCLC = system: EKVX NSCLC
M14 melanoma = system: M14 melanoma
HCT-15 colon = system: HCT-15 colon
K-562 leukemia = system: K-562 leukemia
KM12 colon = system: KM12 colon
HS 578T breast = system: HS 578T breast
CCRF-CEM leukemia = system: CCRF-CEM leukemia
A498 renal = system: A498 renal
SK-MEL-28 melanoma = system: SK-MEL-28 melanoma
RPMI-8226 leukemia = system: RPMI-8226 leukemia
IGROV1 ovarian = system: IGROV1 ovarian
SW-620 colon = system: SW-620 colon
MDA-MB-435 = system: MDA-MB-435
786-0 renal = system: 786-0 renal
U251 CNS = system: U251 CNS
SR leukemia = system: SR leukemia
MOLT-4 leukemia = system: MOLT-4 leukemia
HT29 colon = system: HT29 colon
CAKI-1 renal = system: CAKI-1 renal
SK-MEL-2 melanoma = system: SK-MEL-2 melanoma
MALME-3M melanoma = system: MALME-3M melanoma
LOX IMVI melanoma = system: LOX IMVI melanoma
PC-3 prostate = system: PC-3 prostate
HCC-2998 colon = system: HCC-2998 colon
SF-268 CNS = system: SF-268 CNS
NCI-H23 lung = system: NCI-H23 lung
NCI-H522 lung = system: NCI-H522 lung
UACC-62 melanoma = system: UACC-62 melanoma
OVCAR-8 ovarian = system: OVCAR-8 ovarian
HL-60(TB) leukemia = system: HL-60(TB) leukemia
SN12C renal = system: SN12C renal
NCI-H460 lung = system: NCI-H460 lung
UO-31 renal = system: UO-31 renal
T-47D breast = system: T-47D breast
NCI-H226 lung = system: NCI-H226 lung
OVCAR-3 ovarian = system: OVCAR-3 ovarian
RXF 393 renal = system: RXF 393 renal
SK-MEL-5 melanoma = system: SK-MEL-5 melanoma
HOP-92 NSCLC = system: HOP-92 NSCLC
SF-539 CNS = system: SF-539 CNS
NCI/ADR-RES ovarian = system: NCI/ADR-RES ovarian
OVCAR-4 ovarian = system: OVCAR-4 ovarian
ACHN renal = system: ACHN renal
SK-OV-3 ovarian = system: SK-OV-3 ovarian
SF-295 CNS = system: SF-295 CNS

CC1=C[S+](c2ccccc2)c2cccc3cc4ccccc4c1c23 (centres undefined)
GI50 (OVCAR-5 ovarian): 1.11 µM | TGI (OVCAR-5 ovarian): 2.52 µM | GI50 (DU-145 prostate): 0.515 µM | TGI (DU-145 prostate): 2.13 µM | GI50 (TK-10 renal): 0.604 µM | TGI (TK-10 renal): 2.38 µM | GI50 (SNB-75 CNS): 0.452 µM | TGI (SNB-75 CNS): 1.55 µM | GI50 (SNB-19 CNS): 0.35 µM | TGI (SNB-19 CNS): 1.5 µM | GI50 (HOP-62 NSCLC): 0.486 µM | GI50 (COLO 205 colon): 0.147 µM | TGI (COLO 205 colon): 0.314 µM | GI50 (UACC-257 melanoma): 0.315 µM | TGI (UACC-257 melanoma): 1.68 µM | GI50 (BT-549 breast): 0.216 µM | TGI (BT-549 breast): 0.717 µM | GI50 (HCT-116 colon): 0.0655 µM | GI50 (MDA-MB-231 breast): 1.69 µM | TGI (MDA-MB-231 breast): 4.48 µM | GI50 (A549 NSCLC): 0.309 µM | TGI (A549 NSCLC): 3.59 µM | GI50 (EKVX NSCLC): 0.333 µM | TGI (EKVX NSCLC): 4.99 µM | GI50 (M14 melanoma): 0.189 µM | GI50 (HCT-15 colon): 0.378 µM | TGI (HCT-15 colon): 8.44 µM | GI50 (K-562 leukemia): 0.0712 µM | TGI (K-562 leukemia): 3.85 µM | GI50 (KM12 colon): 0.109 µM | TGI (KM12 colon): 1.21 µM | GI50 (HS 578T breast): 0.385 µM | TGI (HS 578T breast): 14.8 µM | GI50 (CCRF-CEM leukemia): 0.265 µM | GI50 (A498 renal): 1.08 µM | TGI (A498 renal): 5.39 µM | GI50 (SK-MEL-28 melanoma): 0.511 µM | TGI (SK-MEL-28 melanoma): 1.89 µM | GI50 (RPMI-8226 leukemia): 0.0379 µM | TGI (RPMI-8226 leukemia): 0.862 µM | GI50 (IGROV1 ovarian): 0.467 µM | TGI (IGROV1 ovarian): 3.11 µM | GI50 (SW-620 colon): 0.321 µM | TGI (SW-620 colon): 1.65 µM | GI50 (MDA-MB-435): 0.276 µM | TGI (MDA-MB-435): 1.61 µM | GI50 (786-0 renal): 0.379 µM | GI50 (U251 CNS): 0.0458 µM | TGI (U251 CNS): 0.337 µM | GI50 (SR leukemia): 0.297 µM | TGI (SR leukemia): 2.14 µM | GI50 (MOLT-4 leukemia): 0.572 µM | TGI (MOLT-4 leukemia): 9.26 µM | GI50 (HT29 colon): 0.348 µM | TGI (HT29 colon): 2.12 µM | GI50 (CAKI-1 renal): 0.815 µM | TGI (CAKI-1 renal): 8.02 µM | GI50 (SK-MEL-2 melanoma): 1.52 µM | TGI (SK-MEL-2 melanoma): 8.55 µM | GI50 (MALME-3M melanoma): 0.372 µM | TGI (MALME-3M melanoma): 2.22 µM | GI50 (LOX IMVI melanoma): 0.697 µM | TGI (LOX IMVI melanoma): 2.23 µM | GI50 (PC-3 prostate): 0.247 µM | TGI (PC-3 prostate): 12.1 µM | GI50 (HCC-2998 colon): 0.406 µM | TGI (HCC-2998 colon): 1.58 µM | GI50 (SF-268 CNS): 0.237 µM | TGI (SF-268 CNS): 1.76 µM | GI50 (NCI-H23 lung): 1.09 µM | TGI (NCI-H23 lung): 2.86 µM | GI50 (NCI-H522 lung): 0.297 µM | TGI (NCI-H522 lung): 1.57 µM | GI50 (UACC-62 melanoma): 0.305 µM | TGI (UACC-62 melanoma): 1.64 µM | GI50 (OVCAR-8 ovarian): 0.158 µM | TGI (OVCAR-8 ovarian): 3.73 µM | GI50 (HL-60(TB) leukemia): 0.173 µM | TGI (HL-60(TB) leukemia): 1.03 µM | GI50 (SN12C renal): 0.172 µM | TGI (SN12C renal): 1.25 µM | GI50 (NCI-H460 lung): 0.349 µM | TGI (NCI-H460 lung): 2.37 µM | GI50 (UO-31 renal): 0.312 µM | TGI (UO-31 renal): 7.64 µM | GI50 (T-47D breast): 0.217 µM | TGI (T-47D breast): 1.25 µM | GI50 (NCI-H226 lung): 1.26 µM | TGI (NCI-H226 lung): 7.47 µM | GI50 (OVCAR-3 ovarian): 0.323 µM | TGI (OVCAR-3 ovarian): 1.44 µM | GI50 (RXF 393 renal): 0.618 µM | TGI (RXF 393 renal): 2.05 µM | GI50 (SK-MEL-5 melanoma): 0.247 µM | TGI (SK-MEL-5 melanoma): 0.776 µM | GI50 (HOP-92 NSCLC): 0.506 µM | TGI (HOP-92 NSCLC): 2.43 µM | GI50 (SF-539 CNS): 0.35 µM | TGI (SF-539 CNS): 1.28 µM | GI50 (NCI/ADR-RES ovarian): 3.87 µM | TGI (NCI/ADR-RES ovarian): > 55.3 µM | GI50 (OVCAR-4 ovarian): 0.773 µM | TGI (OVCAR-4 ovarian): 2.44 µM | GI50 (ACHN renal): 0.734 µM | TGI (ACHN renal): 14.4 µM | GI50 (SK-OV-3 ovarian): 2.41 µM | TGI (SK-OV-3 ovarian): 14.9 µM | GI50 (SF-295 CNS): 0.111 µM | TGI (SF-295 CNS): 0.584 µM
